# Test results from patent US20140135359A1, “METHODS OF DESIGNING, PREPARING, AND USING NOVEL PROTONOPHORES” (priority 2012, published 2014).
# Like-named read-outs stand apart in the source and are kept apart here.
# Assays:
# [1] = tested on: isolated rat liver mitochondria; assay: Uncoupling activity: increase in basal (state 4) oxygen consumption by oxygraphy; format: biochemical
# [2] = tested on: isolated rat liver mitochondria; assay: Residual functional capacity / inhibitory effect on ADP-stimulated (state 3) oxygen consumption; format: biochemical
# [3] = Suppl. Table 1, 100 μM, 2-3 mitochondrial preparations
# [4] = test conc. 100 μM, increase in basal (state 4) oxygen consumption as % of average ADP-stimulated (state 3) rate in vehicle-treated mitochondria
# [5] = test conc. 100 μM, functional capacity (state 3 minus state 4 rate) as % of vehicle-treated mitochondria
# [6] = test conc. 25 μM, increase in basal (state 4) oxygen consumption as % of average ADP-stimulated (state 3) rate in vehicle-treated mitochondria
# [7] = test conc. 25 μM, functional capacity (state 3 minus state 4 rate) as % of vehicle-treated mitochondria
Molecule,"Measured Uncoupling Activity (% uncoupling ± SEM @ 100 μM) [1, 3]","Uncoupling (%) [1, 4]",Inhibitory effect (%) ([2]; test conc. 100 μM),"Residual capacity (%) [2, 5]","Uncoupling (%) [1, 6]",Inhibitory effect (%) ([2]; test conc. 25 μM),"Residual capacity (%) [2, 7]","uncoupling activity ([1]; 100 μM, result in words)",Measured Uncoupling Activity (% uncoupling ± SEM @ 100 μM) [1],Uncoupling (%) [1],Inhibitory effect (%) [2],Residual capacity (%) [2]
COc1cc(C=O)ccc1O [vanillin],0 ± 1 % uncoupling,0 ± 1%,26%,74 ± 16%,–,–,–,–,–,–,–,–
epigallocatechin gallate [(−) epigallocatechin gallate],0 ± 1 % uncoupling,0 ± 1%,2%,98 ± 2%,–,–,–,–,–,–,–,–
O=c1cc(-c2ccc(O)cc2)oc2cc(O)cc(O)c12 [apigenin],19 ± 3 % uncoupling,19 ± 3%,44%,37 ± 8%,9 ± 1%,28%,63 ± 9%,–,–,–,–,–
O=C(O)/C=C/c1ccc(O)c(O)c1 [caffeic acid],0 ± 1 % uncoupling,0 ± 1%,21%,79 ± 9%,–,–,–,–,–,–,–,–
"COc1ccc(C2CC(=O)c3c(O)cc(O)cc3O2)cc1O (racemic) [(±) hesperetin, hesperetin]",5 ± 1 % uncoupling,5 ± 1%,14%,81 ± 2%,1 ± 1%,8%,91 ± 8%,–,–,–,–,–
C(=Cc1ccccc1)c1ccccc1 [stilbene (trans)],–,−1 ± 1%,1%,99 ± 3%,–,–,–,–,–,–,–,–
CC(=O)c1ccc(O)cc1 [4-acetylphenol],0 ± 0 % uncoupling,0 ± 0%,13%,87 ± 1%,–,–,–,lack of activity,–,–,–,–
"Oc1cc(O)cc(/C=C/c2ccccc2)c1 [trans-pinosylvin, pinosylvin]",3 ± 3 % uncoupling,3 ± 3%,34%,63 ± 4%,0 ± 1%,20%,80 ± 13%,–,–,–,–,–
Oc1ccc(O)cc1 [hydroquinone],0 ± 1 % uncoupling,0 ± 1%,10%,90 ± 8%,–,–,–,–,–,–,–,–
O=C(O)c1ccccc1 [benzoic acid],–,–,–,–,–,–,–,–,0 ± 1 % uncoupling,0 ± 1%,4%,96 ± 3%
Oc1ccccc1 [phenol],–,–,–,–,–,–,–,–,0 ± 0 % uncoupling,0 ± 0%,4%,96 ± 4%
